Key:
[1] = at 25° C.; cited from earlier work
[2] = tested on: pancreatic exocrine function; assay: 13C breath test after oral administration to oleic acid-induced chronic pancreatitis and control rats (13CO2 analyzer); assay type: in vivo, rat; settings: for Δ^13C (‰) value in exhaled CO2: 75 mg/kg oral, at 10 minutes
Experimental: ^13C-labeled cyclodextrin breath test was carried out wherein ^13C-labeled cyclodextrin prepared in Example 1 was orally administered to chronic pancreatitis and control rats and the time course of the ^13C concentration in the exhaled CO2 after the administration was measured.
(§1) According to Mundlos et al. (Mundlos et al., Pancreas, 1:29 (1986)), the chronic pancreatitis rats were prepared by injecting oleic acid into the pancreatic duct of Wistar male rats of 5 weeks old and kept for 3 weeks. Rats in which midline incision was made on the abdomen were used as the control.
The chronic pancreatitis and control rats of 8 weeks old, which fasted overnight, were fixed without anesthesia in a rat holder for a microwave irradiation apparatus. The breath was collected at a rate of about 100 to 300 ml/min using a stroke pump (Variable Stroke Pump VS-500, Shibata Kagaku Kogyo) and introduced directly to a flow cell of a ^13CO2 analyzer EX-130S (Nihon Bunko) to measure ^13C atom % and the carbon dioxide gas concentration continuously. A Perma Pure drier (MD-050-12P, Perma Pure Inc.) was set between the rat holder and the stroke pump to remove out water vapor in the breath. After the CO2 concentration was stabilized, the rat was once removed out of the rat holder and an aqueous solution of ^13C-labeled cyclodextrin was administered (75 mg/kg, 5 ml/kg) into the stomach using an oral sonde.
Δ^13C (‰) was calculated from the ^13C concentration in the exhaled CO2 at each time point (^13C tmin) and the ^13C concentration in standard CO2 (^13C std) according to the following equation: Δ^13C (‰)=[(^13C tmin−^13C 0 min)/^13C std]×1000

[3] = Solubility / precipitation of phenylalanine in distilled water with or without hydroxypropyl-β-cyclodextrin; assay type: physicochemical; settings: 299 mg of [1-^13C]-phenylalanine in 5 ml distilled water, dissolved at 85° C., cooled to 25° C.
Source text: The increase of solubility of phenylalanine in the presence of hydroxypropyl-β-cyclodextrin confirmed the formation of (1-^13C]-phenylalanine/hydroxypropyl-β-cyclodextrin inclusion complex.

[4] = tested on: pancreatic exocrine function; assay: 13C breath test after oral administration in olive oil to chronic pancreatitis and control rats (GC-MS); assay type: in vivo, rat
Experimental: A ^13C-FDL breath test was carried out wherein ^13C-FDL was orally administered to chronic pancreatitis and control rats and the time course of the ^13C concentration in the exhaled CO2 after the administration was measured.
as §1
The chronic pancreatitis and control rats of 8 weeks old, which fasted overnight, were fixed without anesthesia in a rat holder for a microwave irradiation apparatus. The breath was collected at a rate of about 100 to 300 ml/min using a CO2 meter (CAPSTER-100) to monitor the CO2 concentration. […]
The breath was taken out as a sample immediately before the administration and at every hour for 5 hours after the administration and the ^13C concentration in the exhaled CO2 was analyzed by a gas chromatography-mass spectrometer (GC-MS). The analytic conditions for GC-MS are as follows. The CO2 concentration in the collected breath was held at 3±0.5%. GC-MS conditions:
Assuming that the isotopic abundance of oxygen is the same as that which is naturally occurring, ^13C concentration was calculated from the peak areas of the ions m/z=45 and 46 according to the following equation: […]
Δ^13C (‰) was calculated from the ^13C concentration in the exhaled CO2 at each time point (^13C tmin) and the ^13C concentration in standard CO2 (^13C std) according to the following equation: Δ^13C (‰)=[(^13C tmin−^13C 0 min)/^13C std]×1000 12.2 Results

N[C@@H](Cc1ccccc1)C(=O)O [phenylalanine]
solubility [1]: 148 mg/5 ml

galactosyl ^13C-maltohexaose [galactosyl ^13C-labeled maltohexaose]
Δ^13C (‰) value in exhaled CO2 ([2]; chronic pancreatitis rats): 18.9 ± 17 ‰
Δ^13C (‰) value in exhaled CO2 ([2]; control rats): 95.6 ± 42.4 ‰
increase in Δ^13C (‰) value of chronic pancreatitis rats compared with control rats ([2]; galactosyl ^13C-maltohexaose 75 mg/kg oral, for 30 minutes (FIG. 4)): smaller than the control rats

N[C@@H](C[13c]1ccccc1)C(=O)O [(1-^13C]-phenylalanine, [1-^13C]-phenylalanine]
precipitation of phenylalanine when the solution was allowed to cool to 25° C. [3]: phenylalanine was precipitated

^13C-dioctanoylfluorescein [^13C-FDO]
Δ^13C (‰) values of chronic pancreatitis rats compared with control rats ([4]; 200 mg/kg oral in olive oil, at each time point for 5 hours (FIG. 11)): smaller than the control rats
Δ^13C (‰) value in exhaled CO2 ([4]; chronic pancreatitis rats, 200 mg/kg oral in olive oil, at 1 hour): 2.7±3.8 ‰
Δ^13C (‰) value in exhaled CO2 ([4]; chronic pancreatitis rats, 200 mg/kg oral in olive oil, at 3 hours): 18.4±12.1 ‰
Δ^13C (‰) value in exhaled CO2 ([4]; chronic pancreatitis rats, 200 mg/kg oral in olive oil, at 4 hours): 15.2±13.4 ‰
Δ^13C (‰) value in exhaled CO2 ([4]; chronic pancreatitis rats, 200 mg/kg oral in olive oil, at 5 hours): 20.6±11.2 ‰
Δ^13C (‰) value in exhaled CO2 ([4]; control rats, 200 mg/kg oral in olive oil, at 1 hour): 46.3±11.5 ‰
Δ^13C (‰) value in exhaled CO2 ([4]; control rats, 200 mg/kg oral in olive oil, at 3 hours): 60.6±12.7 ‰
Δ^13C (‰) value in exhaled CO2 ([4]; control rats, 200 mg/kg oral in olive oil, at 4 hours): 88.7±8.2 ‰
Δ^13C (‰) value in exhaled CO2 ([4]; control rats, 200 mg/kg oral in olive oil, at 5 hours): 73.6±14.1 ‰

^13C-dilaurylfluorescein [^13C-FDL]
Δ^13C (‰) values of chronic pancreatitis rats compared with control rats ([4]; 160 mg/kg oral in olive oil, at each time point for 5 hours (FIG. 10)): smaller than the control rats
Δ^13C (‰) value in exhaled CO2 ([4]; chronic pancreatitis rats, 160 mg/kg oral in olive oil, at 3 hours): 42.0±21.3 ‰
Δ^13C (‰) value in exhaled CO2 ([4]; chronic pancreatitis rats, 160 mg/kg oral in olive oil, at 5 hours): 95.4±47.1 ‰
Δ^13C (‰) value in exhaled CO2 ([4]; control rats, 160 mg/kg oral in olive oil, at 3 hours): 153.3±22.8 ‰
Δ^13C (‰) value in exhaled CO2 ([4]; control rats, 160 mg/kg oral in olive oil, at 5 hours): 236.3±12.4 ‰

— patent publication US7569208B2, “Diagnostic agents for pancreatic exocrine function” (Tokyo Gas Company Limited, priority 1999, dated 2009)
